In patent US7713970B2, “Substituted cyclic urea derivatives” (FMC Corporation, priority 2004, dated 2010):

System: tobacco budworm (Heliothis virescens [Fabricius])
Experiment: surface-treated diet test against tobacco budworm
Format: in vivo
Settings: 0.25 millimolar candidate insecticide on the surface of the diet, second instar larvae, five-day exposure; for Percent Mortality: compared to total number of insects infested; for Percent Growth Inhibition: inhibition of insect weight relative to untreated controls
Experimental: Candidate insecticides were evaluated for activity against the tobacco budworm (Heliothis virescens [Fabricius]) in a surface-treated diet test.
In this test one mL of molten (65-70° C.) wheat germ-based artificial diet was pipetted into each well of a four by six (24 well) multi-well plate (ID# 430345-15.5 mm dia.×17.6 mm deep; Corning Costar Corp., One Alewife Center, Cambridge, Mass. 02140). The diet was allowed to cool to ambient temperature before treatment with candidate insecticide.
For a determination of insecticidal activity, solutions of the candidate insecticides were prepared for testing using a Packard 204DT Multiprobe® Robotic System (Packard Instrument Company, 800 Research Parkway, Meriden, Conn. 06450), in which the robot first diluted a standard 50 millimolar DMSO solution of candidate insecticide with a 1:1 water/acetone solution (V/V) in a ratio of 1:7 stock solution to water/acetone. The robot subsequently pipetted 40 microliters of the so-prepared solution onto the surface of the diet in each of three wells in the 24 multi-well plate. The process was repeated with solutions of seven other candidate insecticides. Once treated, the contents of the multi-well plate were allowed to dry, leaving 0.25 millimoles of candidate insecticide on the surface of the diet, or a concentration of 0.25 millimolar. Appropriate untreated controls containing only DMSO on the diet surface were also included in this test.
For evaluations of the insecticidal activity of a candidate insecticide at varying rates of application, the test was established as described above using sub-multiples of the standard 50 millimolar DMSO solution of candidate insecticide. For example, the standard 50 millimolar solution was diluted by the robot with DMSO to give 5, 0.5, 0.05, 0.005, 0.0005 millimolar, or more dilute solutions of the candidate insecticide. In these evaluations there were six replicates of each rate of application placed on the surface of the diet in the 24 multi-well plate, for a total of four rates of application of candidate insecticide in each plate.
In each well of the test plate was placed one second instar tobacco budworm larvea, each weighing approximately five milligrams. After the larvae were placed in each well, the plate was sealed with clear polyfilm adhesive tape. The tape over each well was perforated to ensure an adequate air supply. The plates were then held in a growth chamber at 25° C. and 60% relative humidity for five days (light 14 hours/day).
After the five-day exposure period insecticidal activity for each rate of application of candidate insecticide was assessed as percent inhibition of insect weight relative to the weight of insects from untreated controls, and percent mortality when compared to the total number of insects infested.

Compound | Percent Mortality [%] | Percent Growth Inhibition [%]
O=c1n(CCCCOc2c(Cl)cc(OCC=C(Cl)Cl)cc2Cl)cnn1-c1cc(F)cc(F)c1 [Compound 87] | 100 | 100
O=c1n(CCCCOc2c(Cl)cc(OCC=C(Cl)Cl)cc2Cl)cnn1-c1cc(Cl)cc(Cl)c1 [Compound 81] | 100 | 100
O=c1cnn(-c2ccc(Cl)cc2)c(=O)n1CCCCOc1c(Cl)cc(OCC=C(Cl)Cl)cc1Cl [Compound 651] | 100 | 100
O=C1C(=O)N(c2ccc(Cl)cc2)C(=O)N1CCCCOc1c(Cl)cc(OCC=C(Cl)Cl)cc1Cl [Compound 613] | 100 | 100
Cc1ccc(-n2ncn(CCCCOc3c(Cl)cc(OCC=C(Cl)Cl)cc3Cl)c2=O)cc1 [Compound 86] | 100 | 100
O=c1n(CCCCOc2c(Cl)cc(OCC=C(Cl)Cl)cc2Cl)cnn1-c1ccc(Cl)cc1 [Compound 91] | 100 | 100
COc1cc(-n2ncc(=O)n(CCCCOc3c(Cl)cc(OCC=C(Cl)Cl)cc3Cl)c2=O)ccc1Cl [Compound 654] | 100 | 100
O=c1n(CCCCOc2c(Cl)cc(OCC=C(Cl)Cl)cc2Cl)nnn1-c1cc(Cl)cc(Cl)c1 [Compound 299] | 100 | 100
O=c1cnn(-c2ccc(Cl)c(Cl)c2)c(=O)n1CCCCOc1c(Cl)cc(OCC=C(Cl)Cl)cc1Cl [Compound 647] | 100 | 100
O=c1cnn(-c2ccccc2)c(=O)n1CCCCOc1c(Cl)cc(OCC=C(Cl)Cl)cc1Cl [Compound 657] | 100 | 100
O=c1cnn(-c2ccc(Cl)cc2Cl)c(=O)n1CCCCOc1c(Cl)cc(OCC=C(Cl)Cl)cc1Cl [Compound 648] | 100 | 100
Cc1nn(-c2ccc(Cl)cc2F)c(=O)n1CCCCOc1c(Cl)cc(OCC=C(Cl)Cl)cc1Cl [Compound 123] | 100 | 100
O=c1n(CCOc2c(Cl)cc(OCC=C(Cl)Cl)cc2Cl)cnn1-c1ccc(C(F)(F)F)cc1 [Compound 105] | 100 | 100
O=c1n(CCCCOc2c(Cl)cc(OCC=C(Cl)Cl)cc2Cl)cnn1-c1ccc(C(F)(F)F)cc1 [Compound 107, 4-{4-[4-(3,3-Dichloroprop-2-enyloxy)-2,6-dichlorophenoxy]butyl}-1-[4-(trifluoromethyl)-phenyl]-1,2,4-triazolin-5-one] | 100 | 100
Cc1nn(-c2ccc(Cl)cc2)c(=O)n1CCCCOc1c(Cl)cc(OCC=C(Cl)Cl)cc1Cl [Compound 113] | 100 | 100
Cc1nn(-c2ccc(C(C)(C)C)cc2)c(=O)n1CCCCOc1c(Cl)cc(OCC=C(Cl)Cl)cc1Cl [Compound 125] | 100 | 100
O=c1n(CCOc2c(Cl)cc(OCC=C(Cl)Cl)cc2Cl)nnn1-c1cccc(Cl)c1 [Compound 308] | 100 | 100
O=c1n(CCCCOc2c(Cl)cc(OCC=C(Cl)Cl)cc2Cl)cnn1-c1ccc(Cl)c(Cl)c1 [Compound 80] | 100 | 100
O=c1n(CCCCOc2c(Cl)cc(OCC=C(Cl)Cl)cc2Cl)cnn1-c1ccc(Br)cc1 [Compound 104] | 100 | 100
O=c1cnn(-c2ccccc2Cl)c(=O)n1CCCCOc1c(Cl)cc(OCC=C(Cl)Cl)cc1Cl [Compound 652] | 100 | 100
O=c1n(CCCCOc2c(Cl)cc(OCC=C(Cl)Cl)cc2Cl)cnn1-c1ccc(OC(F)(F)F)cc1 [Compound 97] | 100 | 100
O=c1n(CCCCOc2cc(Cl)c(OCC=C(Cl)Cl)c(Cl)c2)nnn1-c1cccc(Cl)c1 [Compound 661] | 100 | 100
O=c1n(CCCCOc2c(Cl)cc(OCC=C(Cl)Cl)cc2Cl)nnn1Cc1ccc(Cl)cc1 [Compound 515] | 100 | 100

Compound | Percent Mortality [%] | Percent Growth Inhibition [%]
O=c1n(CCCCOc2c(Cl)cc(OCC=C(Cl)Cl)cc2Cl)nnn1-c1ccc(Cl)c(Cl)c1 [Compound 306] | 100 | 100
O=c1n(CCCCOc2c(Cl)cc(OCC=C(Cl)Cl)cc2Cl)cnn1-c1ccc([N+](=O)[O-])cc1 [Compound 93] | 100 | 100
Cc1ccc(-n2ncn(CCCCOc3c(Cl)cc(OCC=C(Cl)Cl)cc3Cl)c2=O)cc1C [Compound 99] | 100 | 100
O=c1cnn(-c2ccc(OC(F)F)cc2)c(=O)n1CCCCOc1c(Cl)cc(OCC=C(Cl)Cl)cc1Cl [Compound 656] | 100 | 100
O=c1cnn(-c2ccc(F)cc2F)c(=O)n1CCCCOc1c(Cl)cc(OCC=C(Cl)Cl)cc1Cl [Compound 653] | 100 | 100
O=c1n(Cc2ccc(C(F)(F)F)cc2)cnn1CCOc1c(Cl)cc(OCC=C(Cl)Cl)cc1Cl [Compound 548] | 100 | 100
O=c1n(CCCCOc2c(Cl)cc(OCC=C(Cl)Cl)cc2Cl)nnn1-c1ccc(OC(F)(F)F)cc1 [Compound 303] | 100 | 100
O=c1n(CCCCOc2c(Cl)cc(OCC=C(Cl)Cl)cc2Cl)cnn1-c1cccc(Cl)c1Cl [Compound 76] | 100 | 100
O=c1n(CCCCOc2c(Cl)cc(OCC=C(Cl)Cl)cc2Cl)nnn1Cc1ccc(Cl)cc1Cl [Compound 517] | 100 | 100
Cc1nn(-c2ccccc2)c(=O)n1CCCCOc1c(Cl)cc(OCC=C(Cl)Cl)cc1Cl [Compound 110] | 100 | 100
O=c1n(CCCCOc2c(Cl)cc(OCC=C(Cl)Cl)cc2Cl)ccn1-c1ccc(Cl)cc1 [Compound 4] | 100 | 100
O=c1n(Cc2ccc(C(F)(F)F)cc2)cnn1CCCCOc1c(Cl)cc(OCC=C(Cl)Cl)cc1Cl [Compound 546] | 100 | 100
O=c1cnn(-c2cccc(Cl)c2)c(=O)n1CCCCOc1c(Cl)cc(OCC=C(Cl)Cl)cc1Cl [Compound 650] | 100 | 100
CC(C)(C)c1ccc(-n2nnn(CCCCOc3c(Cl)cc(OCC=C(Cl)Cl)cc3Cl)c2=O)cc1 [Compound 291] | 100 | 100
O=c1n(CCCCOc2c(Cl)cc(OCC=C(Cl)Cl)cc2Cl)nnn1Cc1ccccc1 [Compound 512] | 100 | 100
Cc1cc(C)cc(-n2ncn(CCCCOc3c(Cl)cc(OCC=C(Cl)Cl)cc3Cl)c2=O)c1 [Compound 100] | 100 | 100
Cc1cc(-n2ncn(CCCCOc3c(Cl)cc(OCC=C(Cl)Cl)cc3Cl)c2=O)ccc1Cl [Compound 88] | 100 | 100
O=c1n(CCCCOc2c(Cl)cc(OCC=C(Cl)Cl)cc2Cl)nnn1Cc1ccccc1Cl [Compound 513] | 100 | 100
O=c1n(-c2ccc(Cl)cc2)cnn1CCCCOc1c(Cl)cc(OCC=C(Cl)Cl)cc1Cl [Compound 41] | 100 | 100
O=c1n(CCCCOc2c(Cl)cc(OCC=C(Cl)Cl)cc2Cl)cnn1-c1cccc(Cl)c1 [Compound 75] | 100 | 100
O=c1n(CCOc2c(Cl)cc(OCC=C(Cl)Cl)cc2Cl)nnn1Cc1ccccc1Cl [Compound 522] | 50 | 100
O=c1n(CCCCOc2c(Cl)cc(OCC=C(Cl)Cl)cc2Cl)nnn1Cc1cc(Cl)cc(Cl)c1 [Compound 521] | 100 | 100
O=c1n(CCCCOc2c(Cl)cc(OCC=C(Cl)Cl)cc2Cl)cnn1-c1ccccc1Cl [Compound 92] | 100 | 100
